Experimental data: US6525000B1, “Method for producing anellated triazoles and new anellated triazoles and their use” (BASF Aktiengesellschaft, priority 1998, dated 2003)

Tests used:
Test in all cases: greenhouse post-emergence herbicidal test
Assay type in all cases: in vivo
Chenopodium album = conditions: CHEAL, 100 = complete destruction, 0 = no damage
From the text: (§1) The seeds of the test plants were sown separately for each species. For the post-emergence treatment, the test plants were first grown to a plant height of from 3 to 15 cm, depending on plant habit, and only then treated with the active ingredients which had been suspended or emulsified in water. For this purpose, the test plants were either sown directly and grown in the same containers, or they were first grown separately as seedlings and transplanted into the test containers a few days prior to treatment. The rate of application for the post-emergence treatment was 0.0313 or 0.0156 kg of a.s./ha. Dependingon the species, the plants were kept at from 10-25° C. or 20-35° C. The test period extended over 2 to 4 weeks. During this time, the plants were tended, and their response to the individual treatments was evaluated. Evaluation was carried out using a scale from 0 to 100. 100 means no emergence of the plants, or complete destruction of at least the ariel plants, and 0 means no damage or normal course of growth. The plants used in the experiments belonged to the following species: [table]

Veronica spp. = conditions: VERSS, 100 = complete destruction, 0 = no damage
From the text: as §1

Abutilon theoprasti = conditions: ABUTH, 100 = complete destruction, 0 = no damage
From the text: as §1

Galium aparine = conditions: GALAP, 100 = complete destruction, 0 = no damage
From the text: as §1

Solanum nigrum = conditions: SOLNI, 100 = complete destruction, 0 = no damage
From the text: as §1

Polygonum persicaria = conditions: POLPE, 100 = complete destruction, 0 = no damage
From the text: as §1

## CON=Cc1cc(N2C(=O)C3COCNN3C2=O)c(F)cc1Cl (stereo not drawn) [Ex. 1d, 8-(4′-chloro-2′-fluoro-5′-methoxyiminomethylphenyl)-4-oxa-7,9-dioxo-1,2,8-triaza[4.3.0.]nonane]
Chenopodium album; 0.0156 kg of a.s./ha
  herbicidal activity, evaluation on a scale from 0 to 100: 98
Chenopodium album; 0.0313 kg of a.s./ha
  herbicidal activity, evaluation on a scale from 0 to 100: 98
Veronica spp.; 0.0156 kg of a.s./ha
  herbicidal activity, evaluation on a scale from 0 to 100: 100
Veronica spp.; 0.0313 kg of a.s./ha
  herbicidal activity, evaluation on a scale from 0 to 100: 100
Abutilon theoprasti; 0.0156 kg of a.s./ha
  herbicidal activity, evaluation on a scale from 0 to 100: 100
Abutilon theoprasti; 0.0313 kg of a.s./ha
  herbicidal activity, evaluation on a scale from 0 to 100: 100
Galium aparine; 0.0156 kg of a.s./ha
  herbicidal activity, evaluation on a scale from 0 to 100: 98
Galium aparine; 0.0313 kg of a.s./ha
  herbicidal activity, evaluation on a scale from 0 to 100: 98
Solanum nigrum; 0.0156 kg of a.s./ha
  herbicidal activity, evaluation on a scale from 0 to 100: 100
Solanum nigrum; 0.0313 kg of a.s./ha
  herbicidal activity, evaluation on a scale from 0 to 100: 100
Polygonum persicaria; 0.0156 kg of a.s./ha
  herbicidal activity, evaluation on a scale from 0 to 100: 98
Polygonum persicaria; 0.0313 kg of a.s./ha
  herbicidal activity, evaluation on a scale from 0 to 100: 98
